Results reported in patent US20250064941A1, “SIGLEC LIGANDS, CONJUGATES, AND METHODS OF USE THEREOF” (Osprey Biopharmaceuticals, Inc., priority 2023, published 2025).

Columns and labels:
[1] = molecular target: T1, human Siglec-2/CD22 protein (Homo sapiens, UniProt P20273); experiment: SPR binding affinity to human CD22; conditions: steady-state analysis
T1 construct: purchased Acro Biosystems SI2-H82E3
T1 sequence (P20273 20-847): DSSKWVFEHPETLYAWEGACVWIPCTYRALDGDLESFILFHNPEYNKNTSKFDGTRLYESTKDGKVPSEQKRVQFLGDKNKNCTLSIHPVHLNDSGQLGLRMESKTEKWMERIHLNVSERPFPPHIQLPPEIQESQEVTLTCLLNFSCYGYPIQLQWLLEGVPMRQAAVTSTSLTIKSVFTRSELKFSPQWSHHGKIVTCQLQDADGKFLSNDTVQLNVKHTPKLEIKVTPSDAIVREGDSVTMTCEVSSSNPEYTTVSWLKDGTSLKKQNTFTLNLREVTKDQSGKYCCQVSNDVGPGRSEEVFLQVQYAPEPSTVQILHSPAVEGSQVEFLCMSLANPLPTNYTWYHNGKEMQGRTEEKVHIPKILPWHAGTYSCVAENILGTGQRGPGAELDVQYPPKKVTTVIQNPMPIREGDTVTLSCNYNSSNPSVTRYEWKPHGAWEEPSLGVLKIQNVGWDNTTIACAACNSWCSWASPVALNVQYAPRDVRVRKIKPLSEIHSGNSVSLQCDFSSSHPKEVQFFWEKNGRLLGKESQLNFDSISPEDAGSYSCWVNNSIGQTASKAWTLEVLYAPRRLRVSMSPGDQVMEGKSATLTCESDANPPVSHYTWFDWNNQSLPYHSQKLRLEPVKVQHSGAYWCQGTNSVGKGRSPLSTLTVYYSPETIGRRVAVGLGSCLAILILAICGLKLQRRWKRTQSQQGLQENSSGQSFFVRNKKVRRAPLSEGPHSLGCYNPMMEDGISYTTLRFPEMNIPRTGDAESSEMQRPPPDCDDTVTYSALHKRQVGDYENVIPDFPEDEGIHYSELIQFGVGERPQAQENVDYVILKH
Outline: (§1)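 Steady-state fits gave the affinities. Before capture on a streptavidin surface, biotinylated CD22 had native sialic acids stripped (SialoExo, 4 hours, 37° C.). Running buffer: 10 mM HEPES pH 7.5, 150 mM NaCl, 0.05% Tween-20, 1% DMSO, with DMSO solvent correction.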

[2] = molecular target: T2, mouse Siglec-2-Fc-Avi (CD22) (Mus musculus, UniProt P35329); experiment: SPR binding affinity to mouse CD22; conditions: steady-state analysis
T2 construct: made in house
T2 sequence (P35329 22-708 limits assumed): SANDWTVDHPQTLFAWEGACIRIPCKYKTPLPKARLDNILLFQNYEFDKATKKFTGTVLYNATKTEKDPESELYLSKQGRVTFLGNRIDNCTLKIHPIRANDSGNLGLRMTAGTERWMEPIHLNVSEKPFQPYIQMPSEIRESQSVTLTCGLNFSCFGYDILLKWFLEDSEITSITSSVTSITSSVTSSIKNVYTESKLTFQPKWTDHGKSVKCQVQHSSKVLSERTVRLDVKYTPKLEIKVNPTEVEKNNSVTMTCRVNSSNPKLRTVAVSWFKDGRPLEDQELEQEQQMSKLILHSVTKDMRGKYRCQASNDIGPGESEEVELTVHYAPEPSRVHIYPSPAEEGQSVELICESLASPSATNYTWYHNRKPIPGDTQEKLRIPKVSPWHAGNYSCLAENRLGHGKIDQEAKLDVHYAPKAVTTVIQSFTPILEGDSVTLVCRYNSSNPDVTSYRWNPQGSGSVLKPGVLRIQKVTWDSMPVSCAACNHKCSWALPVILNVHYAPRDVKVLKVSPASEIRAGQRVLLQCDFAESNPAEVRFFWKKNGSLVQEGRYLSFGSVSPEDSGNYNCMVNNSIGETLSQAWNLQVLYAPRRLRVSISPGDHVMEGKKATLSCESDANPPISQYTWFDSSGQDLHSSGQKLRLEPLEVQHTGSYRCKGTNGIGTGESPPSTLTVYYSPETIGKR
Outline: as §1

cynomolgus Siglec-2/CD22 = cynomolgus Siglec-2/CD22 (Macaca fascicularis, UniProt A0A2K5WCZ6); experiment: biochemical; type: binding; conditions: SPR, steady-state analysis; read-out: Affinity cyno CD22
Chain of cynomolgus Siglec-2/CD22 (A0A2K5WCZ6 entry or part of it): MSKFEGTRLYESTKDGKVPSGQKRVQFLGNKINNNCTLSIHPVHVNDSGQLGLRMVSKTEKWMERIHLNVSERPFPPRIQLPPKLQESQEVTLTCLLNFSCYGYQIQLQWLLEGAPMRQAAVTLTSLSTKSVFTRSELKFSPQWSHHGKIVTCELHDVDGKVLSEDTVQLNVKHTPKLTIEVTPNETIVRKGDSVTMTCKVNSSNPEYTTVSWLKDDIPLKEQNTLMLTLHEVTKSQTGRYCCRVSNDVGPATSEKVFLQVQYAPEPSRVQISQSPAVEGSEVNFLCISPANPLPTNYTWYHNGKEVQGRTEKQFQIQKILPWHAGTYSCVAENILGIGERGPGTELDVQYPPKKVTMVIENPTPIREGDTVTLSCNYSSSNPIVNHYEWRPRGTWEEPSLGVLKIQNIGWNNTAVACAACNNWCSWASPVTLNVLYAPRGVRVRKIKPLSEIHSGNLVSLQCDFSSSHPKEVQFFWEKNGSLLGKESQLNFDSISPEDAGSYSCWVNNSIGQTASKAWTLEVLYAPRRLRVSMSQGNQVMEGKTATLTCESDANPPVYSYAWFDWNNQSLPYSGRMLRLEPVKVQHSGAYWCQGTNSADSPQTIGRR
Outline: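 SPR with desialylated (SialoExo, 4 h, 37° C.) cynomolgus CD22 amine-coupled to a CM5 chip. Running buffer 10 mM HEPES, 150 mM NaCl, 0.05% Tween-20, pH 7.5, 1% DMSO, with solvent correction; 120 s dissociation. Affinities from steady-state analysis.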

Compound	Kd [1]	Kd [2]	Kd (cynomolgus Siglec-2/CD22)
O=C(Cc1ccc(Cl)cc1)NC[C@@H](O)[C@@H](O)[C@@H]1O[C@@](OCC2CCOCC2)(C(=O)O)C[C@H](O)[C@H]1NC(=O)CO [Compound 106, (2R,4S,5R,6R)-6-((1R,2R)-3-(2-(4-chlorophenyl)acetamido)-1,2-dihydroxypropyl)-4-hydroxy-5-(2-hydroxyacetamido)-2-((tetrahydro-2H-pyran-4-yl)methoxy)tetrahydro-2H-pyran-2-carboxylic acid]	< 1000 nM	1000 to 10000 nM	< 1000 nM
C#CCOc1ccc(CO[C@]2(C(=O)O)C[C@H](O)[C@@H](NC(=O)CO)[C@H]([C@H](O)[C@H](O)CNC(=O)Cc3ccccc3F)O2)cc1 [Compound 165, (2R,4S,5R,6R)-6-((1R,2R)-3-(2-(2-fluorophenyl)acetamido)-1,2-dihydroxypropyl)-4-hydroxy-5-(2-hydroxyacetamido)-2-((4-(prop-2-yn-1-yloxy)benzyl)oxy)tetrahydro-2H-pyran-2-carboxylic acid]	< 1000 nM	1000 to 10000 nM	1000 to 10000 nM
CCCNC(=O)CCCCCCO[C@]1(C(=O)O)C[C@H](O)[C@@H](NC(=O)CO)[C@H]([C@H](O)[C@H](O)CNC(=O)Cc2cccc(O)c2)O1 [Compound 207, (2R,4S,5R,6R)-6-((1R,2R)-1,2-dihydroxy-3-(2-(3-hydroxyphenyl)acetamido)propyl)-4-hydroxy-5-(2-hydroxyacetamido)-2-((7-oxo-7-(propylamino)heptyl)oxy)tetrahydro-2H-pyran-2-carboxylic acid]	1000 to 10000 nM	1000 to 10000 nM	1000 to 10000 nM
O=C(O)CCCCCCCO[C@]1(C(=O)O)C[C@H](O)[C@@H](NC(=O)CO)[C@H]([C@H](O)[C@H](O)CNC(=O)Cc2ccc(Cl)cc2)O1 [Compound 97, (2R,4S,5R,6R)-2-((7-carboxyheptyl)oxy)-6-((1R,2R)-3-(2-(4-chlorophenyl)acetamido)-1,2-dihydroxypropyl)-4-hydroxy-5-(2-hydroxyacetamido)tetrahydro-2H-pyran-2-carboxylic acid]	< 1000 nM	< 1000 nM	< 1000 nM
CCCCCC[C@H](O)[C@]1(C(=O)O)C[C@H](O)[C@@H](NC(=O)CO)[C@H]([C@H](O)[C@H](O)CNC(=O)Cc2ccc(Cl)cc2)O1 [Compound 203, (2S,4S,5R,6R)-6-((1R,2R)-3-(2-(4-chlorophenyl)acetamido)-1,2-dihydroxypropyl)-4-hydroxy-5-(2-hydroxyacetamido)-2-((S)-1-hydroxyheptyl)tetrahydro-2H-pyran-2-carboxylic acid]	< 1000 nM	1000 to 10000 nM	< 1000 nM
C#CCCOc1ccc(CO[C@]2(C(=O)O)C[C@H](O)[C@@H](NC(=O)CO)[C@H]([C@H](O)[C@H](O)CNC(=O)Cc3ccc(-c4ccc(O)cc4)cc3)O2)cc1 [Compound 77, (2R,4S,5R,6R)-2-((4-(but-3-yn-1-yloxy)benzyl)oxy)-6-((1R,2R)-1,2-dihydroxy-3-(2-(4′-hydroxy-[1,1′-biphenyl]-4-yl)acetamido)propyl)-4-hydroxy-5-(2-hydroxyacetamido)tetrahydro-2H-pyran-2-carboxylic acid]	< 1000 nM	< 1000 nM	< 1000 nM
CC(=O)NCCOCCOCCOCCOCCC(=O)NCCOCCOCCO[C@]1(C(=O)O)C[C@H](O)[C@@H](NC(C)=O)[C@H]([C@H](O)[C@H](O)CNC(=O)Cc2ccc(Cl)cc2)O1 [Compound 274, (2R,4S,5R,6R)-5-acetamido-6-((1R,2R)-3-(2-(4-chlorophenyl)acetamido)-1,2-dihydroxypropyl)-2-((2,18-dioxo-6,9,12,15,22,25-hexaoxa-3,19-diazaheptacosan-27-yl)oxy)-4-hydroxytetrahydro-2H-pyran-2-carboxylic acid]	> 10000 nM	> 10000 nM	> 10000 nM
C#CCOCCCCCCO[C@]1(C(=O)O)C[C@H](O)[C@@H](NC(=O)CO)[C@H]([C@H](O)[C@H](O)CNC(=O)Cc2ccc(C(F)F)cc2)O1 [Compound 157, (2R,4S,5R,6R)-6-((1R,2R)-3-(2-(4-(difluoromethyl)phenyl)acetamido)-1,2-dihydroxypropyl)-4-hydroxy-5-(2-hydroxyacetamido)-2-((6-(prop-2-yn-1-yloxy)hexyl)oxy)tetrahydro-2H-pyran-2-carboxylic acid]	< 1000 nM	< 1000 nM	< 1000 nM
C#CCCOc1ccc(CO[C@]2(C(=O)O)C[C@H](O)[C@@H](NC(=O)CO)[C@H]([C@H](O)[C@H](O)CNC(=O)Cc3ccc4cn[nH]c4c3)O2)cc1 [Compound 10, (2R,4S,5R,6R)-6-((1R,2R)-3-(2-(1H-indazol-6-yl)acetamido)-1,2-dihydroxypropyl)-2-((4-(but-3-yn-1-yloxy)benzyl)oxy)-4-hydroxy-5-(2-hydroxyacetamido)tetrahydro-2H-pyran-2-carboxylic acid]	1000 to 10000 nM	1000 to 10000 nM	1000 to 10000 nM

Results, then the molecule that gave them:

Kd [1]	Kd [2]	Kd (cynomolgus Siglec-2/CD22)	Compound
1000 to 10000 nM	> 10000 nM	1000 to 10000 nM	C#CCOCCOCCO[C@@]1(C(=O)O)O[C@@H]([C@H](O)[C@H](O)CNC(=O)Cc2ccc(-c3ccccc3)cc2)[C@H](NC(=O)CO)[C@@H](NC(=O)CC)[C@@H]1O [Compound 178, (2R,3S,4R,5R,6R)-6-((1R,2R)-3-(2-([1,1′-biphenyl]-4-yl)acetamido)-1,2-dihydroxypropyl)-3-hydroxy-5-(2-hydroxyacetamido)-2-(2-(2-(prop-2-yn-1-yloxy)ethoxy)ethoxy)-4-propionamidotetrahydro-2H-pyran-2-carboxylic acid]
< 1000 nM	1000 to 10000 nM	< 1000 nM	C#CCOCCCCCCO[C@]1(C(=O)O)C[C@H](O)[C@@H](NC(=O)CO)[C@H]([C@H](O)[C@H](O)CNC(=O)Cc2ccc(Cl)cc2)O1 [Compound 113, (2R,4S,5R,6R)-6-((1R,2R)-3-(2-(4-chlorophenyl)acetamido)-1,2-dihydroxypropyl)-4-hydroxy-5-(2-hydroxyacetamido)-2-((6-(prop-2-yn-1-yloxy)hexyl)oxy)tetrahydro-2H-pyran-2-carboxylic acid]
1000 to 10000 nM	> 10000 nM	> 10000 nM	C#CCOCCOCCO[C@]1(C(=O)O)C[C@H](O)[C@@H](NC(=O)CO)[C@H]([C@H](O)[C@H](O)CNC(=O)Cc2ccc(-c3cccnc3)cc2)O1 [Compound 82, (2R,4S,5R,6R)-6-((1R,2R)-1,2-dihydroxy-3-(2-(4-(pyridin-3-yl)phenyl)acetamido)propyl)-4-hydroxy-5-(2-hydroxyacetamido)-2-(2-(2-(prop-2-yn-1-yloxy)ethoxy)ethoxy)tetrahydro-2H-pyran-2-carboxylic acid]
> 10000 nM	> 10000 nM	> 10000 nM	C#CCOCCOCCO[C@]1(C(=O)O)C[C@H](O)[C@@H](NC(=O)CO)[C@H]([C@H](O)[C@H](O)CNC(=O)c2cccc(Cl)c2)O1 [Compound 201, (2R,4S,5R,6R)-6-((1R,2R)-3-(3-chlorobenzamido)-1,2-dihydroxypropyl)-4-hydroxy-5-(2-hydroxyacetamido)-2-(2-(2-(prop-2-yn-1-yloxy)ethoxy)ethoxy)tetrahydro-2H-pyran-2-carboxylic acid]
